Measured values published in US7531669B2, “Methods for treating neural disorders and conditions, and compounds useful therefor” (The Salk Institute for Biological Studies, priority 2003, dated 2009).

Columns and labels:
[1] = Plasma concentration after a single oral dose in mice; assay type: in vivo, BALB/c mice; settings: for Plasma 11-001 concentration: 400 mg/kg single oral dose
Method: The pharmacokinetic properties of compound 11-001 (see FIG. 14) after a single oral dose were studied in 10-week old female BALB/c mice. Compound 11-001 was emulsified in 2.5% carboxymethyl cellulose at a concentration of 20 mg/ml and administered by gavage at a dosage of 400 mg/kg body weight (administered volume was 20 ml/kg body weight). The mice were then sacrificed at various intervals after administration (0, 1 hr, 2 hr, 4 hr, and 6 hr). Plasma was obtained from blood (mixed with K3EDTA to prevent coagulation) by centrifugation at 4,300 g for 10 min, extracted twice with ethyl acetate/propanol (9:1, v/v). The extracts were centrifuged at 5,000 g for 10 min to form aqueous/organic layers. The organic layer containing compound 11-001 was centrifuged at 20,000 g for 10 min to sediment particles. The extraction recovery from plasma was approximately 90%. Thirty μl thereof were analyzed by HPLC equipped with a C18 reversed phase column and compound 11-001 was detected at 330 nm. The elution solvent system was 50% acetonitrile, 50% water and 1 g/L trifluoroacetic acid with a flow rate of 1 ml/min.

JNK-2 = JNK-2 (Homo sapiens, UniProt P45984); assay: Protein kinase panel screen: JNK-2; assay type: biochemical
Sequence of JNK-2 (P45984 whole entry, species assumed): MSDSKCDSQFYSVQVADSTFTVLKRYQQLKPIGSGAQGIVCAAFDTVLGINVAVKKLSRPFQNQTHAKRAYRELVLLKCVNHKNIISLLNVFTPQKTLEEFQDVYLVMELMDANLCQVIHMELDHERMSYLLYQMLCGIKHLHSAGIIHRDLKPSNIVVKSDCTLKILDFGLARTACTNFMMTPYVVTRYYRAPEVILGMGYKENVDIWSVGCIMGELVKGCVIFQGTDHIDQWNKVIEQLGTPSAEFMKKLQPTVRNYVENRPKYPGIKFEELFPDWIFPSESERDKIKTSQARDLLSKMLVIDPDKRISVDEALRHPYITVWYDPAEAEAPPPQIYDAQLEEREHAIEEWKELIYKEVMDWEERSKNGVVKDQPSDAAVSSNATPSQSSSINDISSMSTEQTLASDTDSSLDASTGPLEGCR
Text: (§1) A panel of 14 protein kinases was screened against compound 11-001. […] The phosphorylation of the other tested kinases was not altered.

JNK-3 = JNK-3 (Homo sapiens, UniProt P53779); assay: Protein kinase panel screen: JNK-3; assay type: biochemical
Sequence of JNK-3 (P53779 whole entry, species assumed): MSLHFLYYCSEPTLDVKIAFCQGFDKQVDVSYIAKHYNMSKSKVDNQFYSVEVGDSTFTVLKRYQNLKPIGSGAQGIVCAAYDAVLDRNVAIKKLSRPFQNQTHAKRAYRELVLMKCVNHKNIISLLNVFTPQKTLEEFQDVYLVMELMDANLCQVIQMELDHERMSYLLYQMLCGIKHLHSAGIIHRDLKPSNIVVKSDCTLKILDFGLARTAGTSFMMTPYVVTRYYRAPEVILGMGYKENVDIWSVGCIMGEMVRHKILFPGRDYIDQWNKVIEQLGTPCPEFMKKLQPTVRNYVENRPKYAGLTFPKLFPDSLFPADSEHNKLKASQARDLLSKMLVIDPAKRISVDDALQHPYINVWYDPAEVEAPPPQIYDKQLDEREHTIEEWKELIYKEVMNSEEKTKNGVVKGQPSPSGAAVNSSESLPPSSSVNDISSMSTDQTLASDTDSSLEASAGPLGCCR
Text: as §1

[2] = Brain content after a single oral dose in mice; assay type: in vivo, BALB/c mice; settings: for Brain 11-001 content: 400 mg/kg single oral dose
Method: To study the distribution of compound 11-001 in brain at various time intervals (0, 1 hr, 2 hr, 4 hr, and 6 hr) after gavage (400 mg/kg), the mice were anesthetized with cloral hydrate and perfused through the heart with phosphate buffered saline (PBS) to remove blood in the brain. The mice were then decapitated, the brains removed, and quickly frozen and stored at −80° C. before further analysis. To measure the level of compound 11-001 in the brain, weighed brain pieces were homogenized by sonication in 3 volumes of PBS. The homogenates were then extracted and measured by HPLC as described above.

HT22 cells = assay: HT22 cell survival after glutamate in the CREB phosphorylation experiment; assay type: cell-based; settings: 1 μM compound; all cells died in its absence
Method: CREB phosphorylation in response to oxidative stress was evaluated in the presence of invention compounds. Glutamate was added to HT22 cells in the presence or absence of compound 11-001 (at 1 μM). […] Furthermore, all of the HT22 cells died in the absence of compound 11-001, and over 90% lived in the presence of compound 11-001.

JNK-1 = JNK-1 (Homo sapiens, UniProt P45983); assay: Protein kinase panel screen: JNK-1; assay type: biochemical
Sequence of JNK-1 (P45983 whole entry, species assumed): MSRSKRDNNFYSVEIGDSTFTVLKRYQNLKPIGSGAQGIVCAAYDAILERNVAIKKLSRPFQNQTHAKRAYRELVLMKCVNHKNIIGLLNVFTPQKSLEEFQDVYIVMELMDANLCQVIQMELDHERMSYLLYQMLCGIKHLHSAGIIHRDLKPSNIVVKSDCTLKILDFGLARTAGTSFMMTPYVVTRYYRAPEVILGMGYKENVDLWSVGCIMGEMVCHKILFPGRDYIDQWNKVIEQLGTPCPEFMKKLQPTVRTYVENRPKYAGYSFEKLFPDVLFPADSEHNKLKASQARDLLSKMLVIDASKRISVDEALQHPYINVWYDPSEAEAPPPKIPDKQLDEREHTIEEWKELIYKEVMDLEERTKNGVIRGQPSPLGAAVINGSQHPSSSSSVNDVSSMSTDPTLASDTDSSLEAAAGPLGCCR
Text: as §1

p38 = p38 phosphorylation caused by glutamate in cells; assay type: cell-based; settings: HT22 cells and primary cortical neurons
Text: as §1

[3] = test system: HT22 cells and primary cortical neurons; assay: Cell death caused by glutamate in HT22 cells and primary cortical neurons; assay type: cell-based
JNK = JNK phosphorylation caused by glutamate in cells; assay type: cell-based; settings: HT22 cells and primary cortical neurons
Text: as §1

[4] = test system: rat primary cortical neurons; assay: Neuroprotective activity, rat primary cortical neurons cultured in serum-containing or serum-free medium; assay type: cell-based
Method: Primary cortical neurons are prepared from 18-day-old embryos of Sprague-Dawley rats as described (Liu and Schubert J. Neurochem. 69, 2285-2293 (1997) and J. Neurochem. 71, 2322-2329 (1998)). Briefly, the cerebral cortex is dissected out under an anatomical microscope and is freed of meninges and blood vessels. The cortex is cut into small pieces and is then dissociated by trypsin digestion and passed through a pipette tip. Dissociated neurons are suspended in various media and plated on polylysine-coated 35 mm tissue culture dishes (1×10^6 cells/dish). Several different culture conditions were used. Invention compounds were added to cell culture dishes. Cell survival was measure 2-7 days after compound administration.
The following serum-containing medium was used: minimal essential medium (Sigma) containing 30 mM glucose, 2 mM glutamine, 1 mM pyruvate, penicillin (100 U/ml), streptomycin (100 μg/ml), and 10% fetal calf serum. At a plating density of 1×10^6 cells/dish, most neurons die after one week of culture in this medium. If plated at a density of 2×10^6 cells/dish, then most neurons survive. Glia proliferate in this medium regardless of the initial cell density. Therefore the cell density-dependent neuronal survival in this system is most likely dependent on the neurotrophic factors secreted by the neurons, not by the glia. The results are the same when glial proliferation is inhibited by cytosine arabinoside.
A serum-free medium containing DMEM/F-12 plus N2 supplements (Invitrogen). When plated at a density of 1×10^6 cells/dish, almost all neurons die within three days. The cell death mechanisms in this culture medium are most likely to be oxidative stress and trophic factor deficiency.
A number of compounds according to the present invention were synthesized (using standard synthetic techniques) to explore the structure-activity relationships. The structures of exemplary invention compounds tested are provided herein. The structure-activity relationships of various compounds according to the present invention with rat primary cortical neurons cultured in serum-containing or serum-free medium are set forth in Table 1.

COc1cc(/C=C/c2cc(/C=C/c3ccc(O)c(OC)c3)n(-c3ccccc3)n2)ccc1O [Compound 11-001]
Plasma 11-001 concentration ([1]; 0 hr after gavage): 0 µg/mL
Time of maximum plasma concentration ([1]; 400 mg/kg by gavage): around 2 hr
Plasma 11-001 concentration ([1]; 1 hr after gavage): 1.84 µg/mL
Plasma 11-001 concentration ([1]; 2 hr after gavage): 2.30 µg/mL
Plasma 11-001 concentration ([1]; 4 hr after gavage): 1.25 µg/mL
Plasma 11-001 concentration ([1]; 6 hr after gavage): 0.67 µg/mL
Inhibition of kinase in panel of 14 protein kinases (JNK-2): None of the other enzymes that were assayed, including JNK-1 or JNK-2, were affected
Inhibition of kinase in panel of 14 protein kinases (JNK-3): partially inhibited
Brain 11-001 content ([2]; 0 hr after gavage): 0 μg/g brain
Time of maximum brain concentration ([2]; 400 mg/kg by gavage): 1 h
Oral absorption and passage of the blood-brain barrier ([2]; 400 mg/kg by gavage, mice): can be orally absorbed and traverse the blood-brain barrier
Brain 11-001 content ([2]; 1 hr after gavage): 2.62 μg/g brain
Brain 11-001 content ([2]; 2 hr after gavage): 1.28 μg/g brain
Brain 11-001 content ([2]; 4 hr after gavage): 0.89 μg/g brain
Brain 11-001 content ([2]; 6 hr after gavage): 0.95 μg/g brain
HT22 cells that lived after glutamate (HT22 cells): over 90%
Inhibition of kinase in panel of 14 protein kinases (JNK-1): None of the other enzymes that were assayed, including JNK-1 or JNK-2, were affected
Block of p38 phosphorylation caused by glutamate (p38): about 30%
Effect on cell death [3]: inhibited cell death
Block of JNK phosphorylation caused by glutamate (JNK): about 30%

C(=C\c1cc(/C=C/c2ccccc2)n(-c2ccccc2)n1)/c1ccccc1 [Compound 22-020]
Neuroprotective activity at 1 μM [4]: 0

COc1ccc(/C=C/c2cc(/C=C/c3ccc(OC)cc3)n(-c3ccccc3)n2)cc1 [Compound 22-022]
Neuroprotective activity at 1 μM [4]: 0

COc1cccc(/C=C/c2cc(/C=C/c3cccc(OC)c3)n(-c3ccccc3)n2)c1 [Compound 22-024]
Neuroprotective activity at 1 μM [4]: 0

COc1ccc(/C=C/c2cc(/C=C/c3ccc(OC)c(OC)c3)n(-c3ccccc3)n2)cc1OC [Compound 22-026]
Neuroprotective activity at 1 μM [4]: 0
